Assay [1] concerns the target T1, IRAK4 (Homo sapiens, UniProt Q9NWZ3).
T1 sequence (Q9NWZ3 1-460): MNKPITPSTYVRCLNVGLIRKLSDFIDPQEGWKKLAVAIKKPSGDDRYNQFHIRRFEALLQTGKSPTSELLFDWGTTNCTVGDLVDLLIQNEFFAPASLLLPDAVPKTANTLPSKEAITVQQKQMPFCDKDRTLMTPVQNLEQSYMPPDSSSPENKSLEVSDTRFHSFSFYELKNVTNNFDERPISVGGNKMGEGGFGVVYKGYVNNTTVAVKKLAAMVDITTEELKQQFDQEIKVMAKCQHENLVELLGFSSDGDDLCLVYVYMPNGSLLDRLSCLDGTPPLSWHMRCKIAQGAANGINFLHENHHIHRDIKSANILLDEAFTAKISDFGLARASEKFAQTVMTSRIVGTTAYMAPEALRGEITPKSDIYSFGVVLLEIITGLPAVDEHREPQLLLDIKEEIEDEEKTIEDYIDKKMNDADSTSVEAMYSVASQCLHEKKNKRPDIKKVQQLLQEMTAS
As to the kind of experiment: 2-hour 10 μM ATP Biochemical Assay (MesoScale Detection format; IRAK4 phosphorylation of biotin labeled IRAK1 activation loop peptide). Particulars: for IC50: IRAK4 MSD BIOCHEMICAL (10 μM ATP) IC50 (μM), 1 nM IRAK4, 2 hours. In outline: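 Electrochemiluminescent MSD readout: after streptavidin capture, phosphothreonine on the biotin-labelled IRAK1 activation-loop peptide detected by rabbit antibody and Sulfo-Tag secondary. Phosphorylation ran 2 h with 10 μM ATP before EDTA quench.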

For assay [2], the target named is T1, IRAK4. As to the kind of experiment: 2-hour 1 mM ATP IRAK4 Biochemical assay (as above, but with 100 pM IRAK4 and 1 mM ATP). Particulars: IRAK4 MSD BIOCHEMICAL (1 mM ATP) IC50 (μM), 100 pM IRAK4, 2 hours. In outline:
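MSD electrochemiluminescence read-out: biotinylated peptide product bound to streptavidin plates, probed with anti-P-Thr rabbit antibody and Sulfo-Tag goat anti-rabbit. Kinase reaction used 1 mM ATP and 100 pM IRAK4 over 2 hours before EDTA quench.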

pIC50: −log10 of the molar value.

Broadly, the IC50 is the concentration at which inhibition is half-maximal. The pIC50 is the IC50 on a negative log10 scale, so that one unit is a factor of ten.

Regarding `C[C@@H]1C[C@@H](Oc2cc3nc(C4CCOCC4)cn3cc2NC(=O)c2cccc(C(F)F)n2)CCO1` (relative stereo) [Example 186, 6-(difluoromethyl)-N-(7-(((2R*,4S*)-2-methyltetrahydro-2H-pyran-4-yl)oxy)-2-(tetrahydro-2H-pyran-4-yl)imidazo[1,2-a]pyridin-6-yl)picolinamide], the IC50 at IRAK4 [1] and against IRAK4 [2] was 0.001 µM in each case.
Regarding `CCOc1cc2nc([C@]34CCOC[C@H]3C4)cn2cc1NC(=O)c1cccc(C(F)F)n1` (relative stereo) [Example 249, N-(2-((1S*,6R*)-3-oxabicyclo[4.1.0]heptan-6-yl)-7-ethoxyimidazo[1,2-a]pyridin-6-yl)-6-(difluoromethyl)picolinamide], the IC50 against IRAK4 [1] and against IRAK4 [2] was 0.001 µM each time.
Take `CCOc1cc2nc(C3C[C@@H](C)O[C@@H](C)C3)cn2cc1NC(=O)c1cccc(C(F)(F)F)n1` (relative stereo) [Example 250, N-(2-((2R*,6S*)-2,6-dimethyltetrahydro-2H-pyran-4-yl)-7-ethoxyimidazo[1,2-a]pyridin-6-yl)-6-(trifluoromethyl)picolinamide]: the half-maximal inhibitory concentration (IC50) on IRAK4 [1] and against IRAK4 [2] was 0.001 µM each time.
For `CCOc1cc2nc(C[C@H]3CCOC3)cn2cc1NC(=O)c1cccc(C(F)F)n1` (single isomer, unassigned) [Example 15], the concentration for half-maximal inhibition (IC50) at IRAK4 [1] and at IRAK4 [2] was 0.001 µM throughout.
Consider `CCOc1cc2nc(C[C@@H]3CCOC3)cn2cc1NC(=O)c1cccc(C(F)F)n1` (single isomer, unassigned) [Example 16], for which the 50% inhibitory concentration (IC50) at IRAK4 [1] and on IRAK4 [2] was 0.001 µM throughout.
`CCOc1nc2nc(CC3CCOC3)cn2cc1NC(=O)c1cccc(C(F)(F)F)n1` (single isomer, unassigned) [Example 94]: the pIC50 on IRAK4 [1] (read-out: IRAK4 MSD BIOCHEMICAL (10 μM ATP) IC50, 1 nM IRAK4, 2 hours) was 9.00. At IRAK4 [2], this compound registered an IC50 of 0.004 µM.
`CCOc1nc2nc(CC3CCOC3)cn2cc1NC(=O)c1cccc(C(F)(F)F)n1` (single isomer, unassigned) [Example 95]: the IC50 on IRAK4 [1] came out at 0.001 µM; against IRAK4 [2], 0.003 µM.
For `CCOc1cc2nc([C@H](C)[C@@H]3CCOC3)cn2cc1NC(=O)c1cccc(C(F)(F)F)n1` (single isomer, unassigned) [Example 138] the same measures were 0.001 µM and 0.001 µM.
For `CCOc1cc2nc(C(C)C3CCOC3)cn2cc1NC(=O)c1cccc(C(F)(F)F)n1` (single isomer, unassigned) [Example 139], the IC50 at IRAK4 [1] and against IRAK4 [2] was 0.001 µM throughout.
For `CCOc1cc2nc([C@@H](C)[C@@H]3CCOC3)cn2cc1NC(=O)c1cccc(C(F)(F)F)n1` (single isomer, unassigned) [Example 140], the IC50 against IRAK4 [1] and against IRAK4 [2] was 0.001 µM in each case.
`CCOc1cc2nc([C@H](C)[C@H]3CCOC3)cn2cc1NC(=O)c1cccc(C(F)(F)F)n1` (single isomer, unassigned) [Example 141]: the IC50 at IRAK4 [1] and against IRAK4 [2] was 0.001 µM in each case.
Turning to `CCOc1cc2nc([C@H](F)[C@@H]3CCOC3)cn2cc1NC(=O)c1cccc(C(F)(F)F)n1` (single isomer, unassigned) [Example 143], the concentration for half-maximal inhibition (IC50) at IRAK4 [1] came out at 0.001 µM; against IRAK4 [2], 0.002 µM.
`CCOc1cc2nc(C(F)C3CCOC3)cn2cc1NC(=O)c1cccc(C(F)(F)F)n1` (single isomer, unassigned) [Example 144]: the half-inhibitory concentration (IC50) against IRAK4 [1] and against IRAK4 [2] was 0.001 µM throughout.
As to `CCOc1cc2nc([C@@H](F)[C@@H]3CCOC3)cn2cc1NC(=O)c1cccc(C(F)(F)F)n1` (single isomer, unassigned) [Example 145], the results for the IC50 against IRAK4 [1] and on IRAK4 [2] were 0.001 µM and 0.002 µM, respectively.
For `CCOc1cc2nc([C@H](F)[C@H]3CCOC3)cn2cc1NC(=O)c1cccc(C(F)(F)F)n1` (single isomer, unassigned) [Example 146] the same measures were 0.001 µM and 0.001 µM.
Consider `CC1(COc2cc3nc(C[C@@H]4CCOC4)cn3cc2NC(=O)c2cccc(C(F)(F)F)n2)COC1` (single isomer, unassigned) [Example 164], for which the values for the IC50 on IRAK4 [1] and against IRAK4 [2] were 0.003 µM and 0.005 µM, respectively.
On the same counts, the results for `CC1(COc2cc3nc(C[C@H]4CCOC4)cn3cc2NC(=O)c2cccc(C(F)(F)F)n2)COC1` (single isomer, unassigned) [Example 165] are 0.002 µM and 0.006 µM.
For `CCOc1cc2nc([C@@H](O)C3CC3)cn2cc1NC(=O)c1cccc(C(F)(F)F)n1` (single isomer, unassigned) [Example 169] the same measures were 0.003 µM and 0.009 µM.
On the same counts, the results for `CCOc1cc2nc([C@H](O)C3CC3)cn2cc1NC(=O)c1cccc(C(F)(F)F)n1` (single isomer, unassigned) [Example 170] are 0.004 µM and 0.012 µM.
For the compound `CCOc1cc2nc([C@H]3C[C@@H]3F)cn2cc1NC(=O)c1cccc(C(F)F)n1` (stereo in doubt) [Example 253, 6-(difluoromethyl)-N-(7-ethoxy-2-((1R*,2S*)-2-fluorocyclopropyl)imidazo[1,2-a]pyridin-6-yl)picolinamide], the concentration for half-maximal inhibition (IC50) at IRAK4 [1] came out at 0.002 µM; against IRAK4 [2] it was 0.005 µM.
On the same counts, the results for `CCOc1cc2nc([C@@H]3C[C@H]3F)cn2cc1NC(=O)c1cccc(C(F)F)n1` (stereo in doubt) [Example 254, 6-(difluoromethyl)-N-(7-ethoxy-2-((1S*, 2R*)-2-fluorocyclopropyl)imidazo[1,2-a]pyridin-6-yl)picolinamide] are 0.002 µM and 0.005 µM.
For `CCOc1cc2nc(CC)cn2cc1NC(=O)c1cccc(C(F)(F)F)n1` [Example 1, N-(7-ethoxy-2-ethylimidazo[1,2-a]pyridin-6-yl)-6-(trifluoromethyl)picolinamide] the same measures were 0.003 µM and 0.011 µM.
On the same counts, the results for `CCOc1cc2nc(C3CC3)cn2cc1NC(=O)c1cccc(C(F)(F)F)n1` [Example 2, N-(2-cyclopropyl-7-ethoxyimidazo[1,2-a]pyridin-6-yl)-6-(trifluoromethyl)picolinamide] are 0.003 µM and 0.016 µM.
On to `CCOc1cc2nc(C3CC3)cn2cc1NC(=O)c1cccc(C(F)F)n1` [Example 3, N-(2-cyclopropyl-7-ethoxyimidazo[1,2-a]pyridin-6-yl)-6-(difluoromethyl)picolinamide], for which the half-maximal inhibitory concentration (IC50) worked out at 0.006 µM on IRAK4 [1] and 0.009 µM on IRAK4 [2].
On the same counts, the results for `COc1cc2nc(C3CC3)cn2cc1NC(=O)c1cccc(C(F)F)n1` [Example 4, N-(2-cyclopropyl-7-methoxyimidazo[1,2-a]pyridin-6-yl)-6-(difluoromethyl)picolinamide] are 0.004 µM and 0.015 µM.
For the compound `O=C(Nc1cn2cc(C3CC3)nc2cc1OCC1CCC1)c1cccc(C(F)F)n1` [Example 5, N-(7-(cyclobutylmethoxy)-2-cyclopropylimidazo[1,2-a]pyridin-6-yl)-6-(difluoromethyl)picolinamide], the concentration for half-maximal inhibition (IC50) against IRAK4 [1] and on IRAK4 [2] was 0.003 µM in each case.
For the compound `O=C(Nc1cn2cc(C3CC3)nc2cc1OCc1ccccc1)c1cccc(C(F)F)n1` [Example 9, N-(7-(benzyloxy)-2-cyclopropylimidazo[1,2-a]pyridin-6-yl)-6-(difluoromethyl)picolinamide], the values for the IC50 at IRAK4 [1] and against IRAK4 [2] were 0.005 µM and 0.01 µM, respectively.

These data come from patent US20220089592A1, “IMIDAZO[1,2-A]PYRIDINYL DERIVATIVES AS IRAK4 INHIBITORS” (priority 2019, published 2022).
